# Measurements published in patent US8575091B1, “Amylin analogues and pharmaceutical compositions thereof” (Novo Nordisk A/S, priority 2012, dated 2013).
# Numbered stars: 1 amine (or outer) side, 2 acyl side, 3 side chain; on linkers, the order of the positions; unused ones are H or OH. Bridge positions count the residues as written; N and C are the ends. Side chains are listed from the residue outwards. Peptide text beside a SMILES is read from it. * marks the point of attachment. C20 diacid = O=C(O)CCCCCCCCCCCCCCCCCCC(=O)*; γGlu = O=C(O)[C@H](CCC(=O)[*:2])N[*:1]
# Key:
# human amylin receptor = target: T1, human amylin receptor (Homo sapiens, UniProt O60896+P30988); experiment: Assay (V) binding to the human amylin receptor (SPA, 125I-rat amylin); conditions: human amylin receptor membranes, SPA; read-out: hAmylin-R bind IC50
# T1 construct: expressed in transfected cells
# T1 sequence (P30988 25-474): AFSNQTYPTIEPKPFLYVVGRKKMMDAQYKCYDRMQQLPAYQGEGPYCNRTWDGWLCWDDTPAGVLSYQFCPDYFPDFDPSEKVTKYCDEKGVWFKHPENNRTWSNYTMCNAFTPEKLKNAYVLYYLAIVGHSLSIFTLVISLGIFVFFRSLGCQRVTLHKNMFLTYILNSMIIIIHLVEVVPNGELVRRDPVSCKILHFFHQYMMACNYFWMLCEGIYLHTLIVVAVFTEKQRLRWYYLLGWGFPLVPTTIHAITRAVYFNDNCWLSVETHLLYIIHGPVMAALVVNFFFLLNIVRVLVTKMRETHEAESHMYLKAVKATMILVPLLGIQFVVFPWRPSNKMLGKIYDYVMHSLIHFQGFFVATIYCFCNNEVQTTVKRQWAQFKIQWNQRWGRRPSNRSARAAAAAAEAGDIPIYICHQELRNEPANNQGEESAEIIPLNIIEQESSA
# T1 sequence (O60896 24-148 partner): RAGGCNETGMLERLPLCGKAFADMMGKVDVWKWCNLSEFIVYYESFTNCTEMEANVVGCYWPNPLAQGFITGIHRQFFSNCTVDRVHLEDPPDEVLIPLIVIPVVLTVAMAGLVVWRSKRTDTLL
# Method in brief: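 IC50, taken as receptor affinity, came from one-site binding competition analysis of scintillation proximity counts. Amylin 3(a)/CRE-luc cell membranes (35 ng/μL final) were mixed with SPA beads (0.05 mg/well) in 50 mM Hepes pH 7.4 containing CaCl2, MgCl2, 0.1% OA and 0.02% Tween20.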
# [1] = target: T2, human calcitonin receptor (Homo sapiens, UniProt P30988); experiment: Assay (II)a functional assay, human calcitonin receptor (CRE luciferase, BHK cells);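 also: luminescence from a CRE-driven luciferase reporter, read by single photon counting after cells were exposed to test samples for 3 h at 37 °C under 5% CO2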; assay type: cell-based; conditions: read-out: hCTR funct. EC50
# T2 construct: expressed in transfected cells
# T2 sequence (P30988 25-474): T1 sequence (P30988 25-474)
# [2] = target: T2, human calcitonin receptor; experiment: Assay (VII) binding to the human calcitonin receptor (SPA, 125I-Calcitonin); conditions: read-out: hCTR bind IC50;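 also: cell membranes coupled to SPA beads, competitive displacement read by scintillation counting, IC50 derived from a one-site competition fit as a measure of receptor affinity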
# [3] = target: T3, human amylin receptor (amylin 3(a) receptor: human calcitonin receptor + RAMP-3) (Homo sapiens, UniProt O60896+P30988); experiment: Assay (II)a functional assay, human amylin receptor (CRE luciferase, BHK cells); assay type: cell-based; conditions: for EC50: functional assay, human amylin receptor, read-out: hAmylin-R funct. EC50
# T3 construct: expressed in transfected cells
# T3 sequence (P30988 25-474): T1 sequence (P30988 25-474)
# T3 sequence (O60896 24-148 partner): T1 sequence (O60896 24-148 partner)
# [4] = Table 6, human functional selectivity (hCTR EC50 / hAmylin-R EC50)
# [5] = Table 6a, human functional selectivity (hCTR EC50 / hAmylin-R EC50), at least 5
# [6] = Table 6j, hCTR funct. EC50 / hAmylin-R funct. EC50
# [7] = Table 6k, hCTR funct. EC50 / hAmylin-R funct. EC50
SMILES,IC50 (human amylin receptor) [nM],EC50 [1] [nM],IC50 [2] [nM],EC50 [3] [nM],"Ratio hCT/hAmylin funct. [3, 4]","Ratio hCT/hAmylin funct. [3, 5]","Ratio hCT/hAmylin funct. [3, 6]","Ratio hCT/hAmylin funct. [3, 7]"
CC[C@H](C)[C@H](NC(=O)[C@H](C)NC(=O)CNC(=O)[C@H](Cc1ccccc1)NC(=O)[C@H](CC(N)=O)NC(=O)[C@@H]1CCCN1C(=O)[C@H](CO)NC(=O)[C@H](CO)NC(=O)[C@H](Cc1c[nH]cn1)NC(=O)[C@H](CCCNC(=N)N)NC(=O)[C@H](CC(C)C)NC(=O)[C@H](Cc1ccccc1)NC(=O)[C@H](CC(N)=O)NC(=O)[C@H](C)NC(=O)[C@H](CC(C)C)NC(=O)[C@H](CCCNC(=N)N)NC(=O)[C@H](CCC(N)=O)NC(=O)[C@@H](NC(=O)[C@H](C)NC(=O)[C@@H]1CSSC[C@H](NC(=O)[C@@H](N)CCCCNC(=O)COCCOCCNC(=O)CCCCCCCCCCCCCCCCCCC(=O)O)C(=O)N[C@@H](CC(N)=O)C(=O)N[C@@H]([C@@H](C)O)C(=O)N[C@@H](C)C(=O)N[C@@H]([C@@H](C)O)C(=O)N1)[C@@H](C)O)C(=O)N1CCC[C@H]1C(=O)N[C@@H](CO)C(=O)N[C@@H](CO)C(=O)N[C@H](C(=O)N[C@@H](CC(N)=O)C(=O)N[C@H](C(=O)NCC(=O)N[C@@H](Cc1c[nH]cn1)C(=O)N[C@@H](CC(N)=O)C(=O)N[C@H](C(=O)N[C@@H](Cc1ccc(O)cc1)C(N)=O)[C@@H](C)O)C(C)C)[C@@H](C)O [Example 91],0.119,1.48,12,0.04,–,–,–,–
CC[C@H](C)[C@H](NC(=O)[C@H](C)NC(=O)CNC(=O)[C@H](Cc1ccccc1)NC(=O)[C@H](CC(N)=O)NC(=O)[C@@H]1CCCN1C(=O)[C@H](CO)NC(=O)[C@H](CO)NC(=O)[C@H](Cc1c[nH]cn1)NC(=O)[C@H](CCCNC(=N)N)NC(=O)[C@H](CC(C)C)NC(=O)[C@H](Cc1ccccc1)NC(=O)[C@H](Cc1c[nH]cn1)NC(=O)[C@H](C)NC(=O)[C@H](CC(C)C)NC(=O)[C@H](CCCNC(=N)N)NC(=O)[C@H](CCC(N)=O)NC(=O)[C@@H](NC(=O)[C@H](C)NC(=O)[C@@H]1CSSC[C@H](NC(=O)[C@@H](N)CCCCNC(=O)CC[C@H](NC(=O)CC[C@H](NC(=O)CCCCCCCCCCCCCCCCCCC(=O)O)C(=O)O)C(=O)O)C(=O)N[C@@H](CC(N)=O)C(=O)N[C@@H]([C@@H](C)O)C(=O)N[C@@H](C)C(=O)N[C@@H]([C@@H](C)O)C(=O)N1)[C@@H](C)O)C(=O)N1CCC[C@H]1C(=O)N[C@@H](CO)C(=O)N[C@@H](CO)C(=O)N[C@H](C(=O)N[C@@H](CC(N)=O)C(=O)N[C@H](C(=O)NCC(=O)N[C@@H](CO)C(=O)N[C@@H](CC(N)=O)C(=O)N[C@H](C(=O)N[C@@H](Cc1ccc(O)cc1)C(N)=O)[C@@H](C)O)C(C)C)[C@@H](C)O [Example 92],0.179,2.38,26,0.085,28.0,28.0,28.0,28.0
CC[C@H](C)[C@H](NC(=O)[C@H](C)NC(=O)CNC(=O)[C@H](Cc1ccccc1)NC(=O)[C@H](CC(N)=O)NC(=O)[C@@H]1CCCN1C(=O)[C@H](CO)NC(=O)[C@H](CO)NC(=O)[C@H](Cc1c[nH]cn1)NC(=O)[C@H](CCCNC(=N)N)NC(=O)[C@H](CC(C)C)NC(=O)[C@H](Cc1ccccc1)NC(=O)[C@H](C)NC(=O)[C@H](C)NC(=O)[C@H](CC(C)C)NC(=O)[C@H](CCCNC(=N)N)NC(=O)[C@H](CCC(N)=O)NC(=O)[C@@H](NC(=O)[C@H](C)NC(=O)[C@@H]1CSSC[C@H](NC(=O)[C@@H](N)CCCCNC(=O)CC[C@H](NC(=O)CCCCCCCCCCCCCCCCCCC(=O)O)C(=O)O)C(=O)N[C@@H](CC(N)=O)C(=O)N[C@@H]([C@@H](C)O)C(=O)N[C@@H](C)C(=O)N[C@@H]([C@@H](C)O)C(=O)N1)[C@@H](C)O)C(=O)N1CCC[C@H]1C(=O)N[C@@H](CO)C(=O)N[C@@H](CO)C(=O)N[C@H](C(=O)N[C@@H](CC(N)=O)C(=O)N[C@H](C(=O)NCC(=O)N[C@@H](Cc1c[nH]cn1)C(=O)N[C@@H](CC(N)=O)C(=O)N[C@H](C(=O)N[C@@H](Cc1ccc(O)cc1)C(N)=O)[C@@H](C)O)C(C)C)[C@@H](C)O [Example 93] (H-K([γGlu-C20 diacid])CNTATCATQRLAAFLRHSSPNFGAIPSSTNVGHNTY-NH2; disulfide 2-7),0.176,1.15,17.8,0.118,9.7,9.7,9.7,9.7

# Next, values leading:
IC50 (human amylin receptor) [nM],EC50 [1] [nM],IC50 [2] [nM],EC50 [3] [nM],"Ratio hCT/hAmylin funct. [3, 4]","Ratio hCT/hAmylin funct. [3, 5]","Ratio hCT/hAmylin funct. [3, 6]","Ratio hCT/hAmylin funct. [3, 7]",SMILES
0.166,3.8,13.2,0.181,21.0,21.0,21.0,21.0,CC[C@H](C)[C@H](NC(=O)[C@H](C)NC(=O)CNC(=O)[C@H](Cc1ccccc1)NC(=O)[C@H](CC(N)=O)NC(=O)[C@@H]1CCCN1C(=O)[C@H](CO)NC(=O)[C@H](CO)NC(=O)[C@H](Cc1c[nH]cn1)NC(=O)[C@H](CCCNC(=N)N)NC(=O)[C@H](CC(C)C)NC(=O)[C@H](Cc1ccccc1)NC(=O)[C@H](CC(N)=O)NC(=O)[C@H](C)NC(=O)[C@H](CC(C)C)NC(=O)[C@H](CCCNC(=N)N)NC(=O)[C@H](CCC(N)=O)NC(=O)[C@@H](NC(=O)[C@H](C)NC(=O)[C@@H]1CSSC[C@H](NC(=O)[C@@H](N)CCCCNC(=O)COCCOCCNC(=O)COCCOCCNC(=O)CC[C@H](NC(=O)CCCCCCCCCCCCCCCCCCC(=O)O)C(=O)O)C(=O)N[C@@H](CC(N)=O)C(=O)N[C@@H]([C@@H](C)O)C(=O)N[C@@H](C)C(=O)N[C@@H]([C@@H](C)O)C(=O)N1)[C@@H](C)O)C(=O)N1CCC[C@H]1C(=O)N[C@@H](CO)C(=O)N[C@@H](CO)C(=O)N[C@H](C(=O)N1CCC[C@H]1C(=O)N[C@H](C(=O)NCC(=O)N[C@@H](CO)C(=O)N[C@@H](CC(N)=O)C(=O)N[C@H](C(=O)N[C@@H](Cc1ccc(O)cc1)C(N)=O)[C@@H](C)O)C(C)C)[C@@H](C)O [Example 96]
0.091,1.63,6.74,0.084,–,–,–,–,CC[C@H](C)[C@H](NC(=O)[C@H](C)NC(=O)CNC(=O)[C@H](Cc1ccccc1)NC(=O)[C@H](CC(N)=O)NC(=O)[C@@H]1CCCN1C(=O)[C@H](CO)NC(=O)[C@H](CO)NC(=O)[C@H](Cc1c[nH]cn1)NC(=O)[C@H](CCCNC(=N)N)NC(=O)[C@H](CC(C)C)NC(=O)[C@H](Cc1ccccc1)NC(=O)[C@H](CC(N)=O)NC(=O)[C@H](C)NC(=O)[C@H](CC(C)C)NC(=O)[C@H](CCCNC(=N)N)NC(=O)[C@H](CCC(N)=O)NC(=O)[C@@H](NC(=O)[C@H](C)NC(=O)[C@@H]1CSSC[C@H](NC(=O)[C@@H](N)CCCCNC(=O)COCCOCCNC(=O)COCCOCCNC(=O)CC[C@H](NC(=O)CCCCCCCCCCCCCCCCCCC(=O)O)C(=O)O)C(=O)N[C@@H](CC(N)=O)C(=O)N[C@@H]([C@@H](C)O)C(=O)N[C@@H](C)C(=O)N[C@@H]([C@@H](C)O)C(=O)N1)[C@@H](C)O)C(=O)N1CCC[C@H]1C(=O)N[C@@H](CO)C(=O)N[C@@H](CO)C(=O)N[C@H](C(=O)N[C@@H](CC(N)=O)C(=O)N[C@H](C(=O)NCC(=O)N1CCC[C@H]1C(=O)N[C@@H](CC(N)=O)C(=O)N[C@H](C(=O)N[C@@H](Cc1ccc(O)cc1)C(N)=O)[C@@H](C)O)C(C)C)[C@@H](C)O [Example 98]
